Data published in US20260242776A1, “Modification of tRNA T-Stem for Enhancing N-Methyl Amino Acid Incorporation” (priority 2019, published 2026).
*1 amine or outer side, *2 acyl side, *3 side chain or, on linkers, in order; H or OH if unused. Where no end group is shown, it is not given here. [ ]: non-standard residue; d: D form. The star is where a group is joined. MeYm = N-methyl-p-methoxyphenylalanine, COc1ccc(C[C@@H](C(=O)[*:2])N(C)[*:1])cc1; NMeY = CN[C@@H](Cc1ccc(O)cc1)C(=O)O; NMeF = CN[C@@H](Cc1ccccc1)C(=O)O; NMeNle = CCCC[C@H](NC)C(=O)O; NMeNva = CCC[C@H](NC)C(=O)O; NMeV = CN[C@H](C(=O)O)C(C)C; NMeS = CN[C@@H](CO)C(=O)O; NMeA = CN[C@@H](C)C(=O)O; Sar = CNCC(=O)O; For = O=C*

Test system: FIT system (reconstituted E. coli cell-free translation system)
Assay: In vitro translation in FIT system, peptide expression level by tricine-SDS-PAGE autoradiography
Type: biochemical
Conditions: mRNA14, 9 different ^MeAAs; control translation using 20 pAAs; FIG. 6d, 6e

**Q.** How did the “Expression efficiency relative to the control” value turn out when “P14: 32-mer model peptide composed of 9 respectively different ^MeAAs and 14 pAAs, translated from mRNA14 (For-MKKK[NMeS]HM[Sar][NMeV]TE[NMeNle]S[NMeY][NMeA]QN[MeYm]GW[NMeNva]R[NMeF]PDYKDDDDK)” was run?
**A.** 34%
